These results are taken from publication PMC9919437 (Molecules, 2023).

Like-named read-outs stand apart in the source and are kept apart here.

For experiment [1], the target named is T1, BC2L-C-Nt (N-terminal lectin domain of BC2L-C) (Burkholderia cenocepacia, UniProt B4EH86). Briefly: biochemical. The format is binding.
In experiment [2] the target is T1, BC2L-C-Nt (N-terminal lectin domain of BC2L-C). To be noted: cited from earlier work.
The next experiment has as its system BC2L-C-Nt. In words: STD-NMR competition experiment with α-methyl fucoside. The format is binding, Burkholderia cenocepacia. The conditions noted are these: 1 mol equiv α-methyl fucoside; for 4 aromatic protons only. The protocol:
A great deal of additional information can be gained from STD competition assays, where a known binder is added to a protein–ligand mixture with the aim of displacing the ligand under study and confirm that they are both competing for the same binding site. […] The same competition experiment was performed for 4 in the presence of α-methyl fucoside. The reduction in STD intensity after the addition of the monosaccharide can be evaluated only for the aromatic protons, since the signals of galactose and methyl fucoside overlap in the region 3.8–3.6 ppm, and can be estimated around 60% (Table S2).
NMR experiments were performed on 400 MHz Bruker Avance III and 600 MHz Bruker Avance spectrometers at 298 K in deuterated or aqueous phosphate buffer at pH 7.4. When required, water suppression was achieved by excitation sculpting sequence from standard Bruker library. STD NMR experiments were performed using WATERGATE 3-9-19 pulse sequence for water suppression. […] Intensities of all STD effects (absolute STD) were calculated by division through integrals over the respective signals in STD reference spectra. The different signal intensities of the individual protons are best analyzed from the integral values in the reference and STD spectra, respectively. […]

T1 sequence (B4EH86 1-132 limits assumed): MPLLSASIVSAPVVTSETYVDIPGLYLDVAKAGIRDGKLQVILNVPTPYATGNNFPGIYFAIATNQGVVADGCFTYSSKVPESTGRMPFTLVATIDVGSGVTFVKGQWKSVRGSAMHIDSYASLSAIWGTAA

In general, Kd refers to a measure of binding affinity in units of concentration. Take `CC(=O)N[C@H]1[C@H](O[C@H]2[C@@H](O)[C@@H](CO)OC(O)[C@@H]2O)O[C@H](CO)[C@@H](O)[C@@H]1O[C@@H]1O[C@H](CO)[C@H](O)[C@H](O)[C@H]1O[C@@H]1O[C@@H](C)[C@@H](O)[C@@H](O)[C@@H]1O` (some centres unmarked) [H-type 1 tetrasaccharide, Fucα1-2Galβ1-3GlcNAcβ1-3Gal, reference compound]: the “n (stoichiometry)” value in experiment [1] is 0.81. The Kd in experiment [1] (pH 7, read-out: KD) stood at 56 ± 4.5 µM.
For the compound `C[C@@H]1O[C@H](C#Cc2ccc(C(C)(C)CN)cc2)[C@@H](O)[C@H](O)[C@@H]1O` [compound 1], in experiment [2], the equilibrium dissociation constant (Kd) was 290 µM.
In the case of `C[C@@H]1O[C@H](NC(=O)c2ccc(-c3cccc(CN)c3)o2)[C@@H](O)[C@H](O)[C@@H]1O` [compound 3], the “times less potent than the H-type 1 tetrasaccharide” value in experiment [1] is on record as 3. Further, the “decrease of STD signal of the ligand after addition of α-methyl fucoside” value in the experiment with BC2L-C-Nt is 20–26%.
Regarding `NCc1cccc(-c2ccc(C(=O)NC3OC(CO)C(O)C(O)C3O)o2)c1` (centres unmarked) [compound 4], in experiment [1], the “factor by which activity is lower than that of 3” value is given as 2.5. The dissociation constant Kd in experiment [1] (KD) is 390 µM. Further, in the experiment on BC2L-C-Nt, the “decrease of STD signal of the ligand after addition of α-methyl fucoside” value was “around 60%”.
